Earlier results in patent US20080221049A1, “Free-flowing lyophilized tobramycin formulation” (APP Pharmaceuticals, LLC., priority 2004, published 2008).
Counter-ions that a name gives are not always drawn. Like-named read-outs stand apart in the source and are kept apart here.

Details: after reconstitution, e.g. with 30 mL Sterile Water for Injection

time within which the reconstituted solution should be used (stored at room temperature): ≤ 24 h | time within which the reconstituted solution should be used (stored under refrigeration): ≤ 96 h
SMILES: NCC1OC(OC2C(N)CC(N)C(OC3OC(CO)C(O)C(N)C3O)C2O)C(N)CC1O [Tobramycin sulfate, 0-3-amino-3-deoxy-α-D-glucopyranosyl-(1→4) —O—[2,6-diamino-2,3,6-trideoxy-α-D-ribo-hexopyranosyl-(1→6)]-2-deoxy-L-streptamine, sulfate (2:5)(salt)]
